Blank lines part the entries; values can stand above or below the compound they belong to.
Assays:
[1] = test system: HCT116 xenografts; test: HCT116 xenografts in nude mice; format: in vivo; conditions: at MTD: 600 mg/kg; for Activity in vivo, cures: cures per mice
[2] = molecular target: T1, Rab geranylgeranyl transferase (GGTII) (Homo sapiens, UniProt P53611+Q92696); test: Prenyltransferase enzyme assay, RabGGT; format: biochemical
T1 sequence (Q92696 1-567): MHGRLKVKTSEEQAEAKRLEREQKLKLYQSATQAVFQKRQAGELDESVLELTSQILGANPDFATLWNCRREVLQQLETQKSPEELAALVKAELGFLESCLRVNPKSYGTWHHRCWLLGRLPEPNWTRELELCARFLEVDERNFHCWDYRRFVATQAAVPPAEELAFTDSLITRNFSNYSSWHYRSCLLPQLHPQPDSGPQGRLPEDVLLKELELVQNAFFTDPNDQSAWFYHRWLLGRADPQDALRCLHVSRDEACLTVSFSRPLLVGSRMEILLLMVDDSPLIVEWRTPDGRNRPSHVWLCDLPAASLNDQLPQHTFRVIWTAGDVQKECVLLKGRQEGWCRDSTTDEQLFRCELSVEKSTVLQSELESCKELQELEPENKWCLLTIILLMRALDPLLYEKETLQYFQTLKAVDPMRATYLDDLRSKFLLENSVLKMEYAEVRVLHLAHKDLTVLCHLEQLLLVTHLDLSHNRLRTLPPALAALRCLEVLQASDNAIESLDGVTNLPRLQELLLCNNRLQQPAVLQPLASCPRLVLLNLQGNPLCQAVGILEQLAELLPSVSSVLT
T1 sequence (P53611 1-331): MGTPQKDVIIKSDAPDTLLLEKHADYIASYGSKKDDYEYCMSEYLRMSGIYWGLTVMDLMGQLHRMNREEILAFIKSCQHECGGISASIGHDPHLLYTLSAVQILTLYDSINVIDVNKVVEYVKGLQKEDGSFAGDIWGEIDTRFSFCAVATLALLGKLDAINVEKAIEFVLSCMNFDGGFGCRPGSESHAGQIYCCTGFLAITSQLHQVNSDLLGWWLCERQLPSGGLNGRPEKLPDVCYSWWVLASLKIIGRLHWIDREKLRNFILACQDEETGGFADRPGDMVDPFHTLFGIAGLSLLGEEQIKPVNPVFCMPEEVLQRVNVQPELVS
Description: (§1) Enzyme Assays. Prenyltransferases and H-Ras processing inhibition were carried out as described earlier (Hunt et al., Rose et al., Lackner et al., Manne et al., and Lombardo et al).

[3] = test system: cross-linker site in HCT-116 quiescent cell extracts; test: Cross-linking competition with tritium labeled azido analogue BMS-540864; format: binding, human
[4] = test system: HCT-116 cells; test: Flow cytometry of HCT-116 P and Q cells (BrdU, p85 PARP, activated caspase 3); format: cell-based, human
Description: Untreated HCT-116 cells in P or in Q state (Panel a) were analyzed by flow cytometry. The y axis represents cell numbers and the x axis DNA content. […] The x axis indicates the level of activated caspase while the y axis represents percentage of total fluorescence adjusted to 100%. […] The x axis indicates the level of BrdU incorporation, while the y axis indicates the p85 cleaved PARP cells.

[5] = test system: HCT-116 cells; test: Clonogenic assay, proliferating (P) versus quiescent (Q) cells; format: cell-based, human; conditions: for P/Q selectivity: ratio derived from the IC90s on HCT116 cells; for IC90: Homo sapiens, HCT-116, P cells, 16 hr treatment
Description: Tumor Cell Lines. […] Proliferating cultures were set up by plating 3×10^5 cells in 10 ml of RPMI medium in T75 flasks on day 0 and treated with compounds (dissolved in fresh medium) on day 2 or 3. Quiescent cultures were set up by plating 3×10^5 cells in 10 ml of RPMI media in T75 flasks on day 0, changing medium on day 2, and treated with drugs dissolved in spent media on day 6 for 17 hr.
Clonogenic Assay. […] After 10 days incubation at 37° C., colonies were stained with crystal violet.

[6] = molecular target: geranylgeranyl transferase I (GGTI) (Homo sapiens, UniProt P49354+P53609); test: Prenyltransferase enzyme assay, GGTI; format: biochemical
Description: as §1

[7] = test system: HCT/VM46 xenograft; test: HCT/VM46 multidrug resistant colon carcinoma xenograft; format: in vivo, mice
Text: FIG. 5. […] Panel c. […] Therefore, the consistently observed synergy of the combinations is highly sequence dependent, in vitro and in vivo.

[8] = molecular target: FT (Homo sapiens, UniProt P49354+P49356); test: Prenyltransferase enzyme assay, FT; format: biochemical
Description: as §1

[9] = molecular target: T2, Stress induced-phosphoprotein 1 (Hsp70/Hsp90-organizing protein) (Homo sapiens, UniProt P31948); test: Affinity capture on monomeric avidin, ALL cell fractions, MS peptide hits; format: binding
T2 construct: endogenous in cells; host or cells: ALL cells (quiescent), nuclear and cytoplasmic fractions
T2 sequence (P31948 whole entry): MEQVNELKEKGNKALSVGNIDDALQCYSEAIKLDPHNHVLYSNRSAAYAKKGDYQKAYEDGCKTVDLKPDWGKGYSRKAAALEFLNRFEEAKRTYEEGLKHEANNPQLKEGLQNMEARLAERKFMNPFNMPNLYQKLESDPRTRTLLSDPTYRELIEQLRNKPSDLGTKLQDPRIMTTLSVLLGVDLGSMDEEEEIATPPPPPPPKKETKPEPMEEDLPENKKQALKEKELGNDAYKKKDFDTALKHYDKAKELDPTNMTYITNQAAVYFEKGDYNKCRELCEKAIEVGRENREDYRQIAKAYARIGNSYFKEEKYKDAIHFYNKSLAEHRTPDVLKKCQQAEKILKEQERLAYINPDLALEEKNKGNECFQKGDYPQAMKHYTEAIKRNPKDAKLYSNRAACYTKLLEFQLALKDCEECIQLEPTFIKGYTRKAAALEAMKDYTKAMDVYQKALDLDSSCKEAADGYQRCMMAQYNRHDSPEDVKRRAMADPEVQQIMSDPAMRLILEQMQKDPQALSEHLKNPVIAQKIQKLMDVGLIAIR
Description: (§2) An important first step was to establish a source of cells that grew to high density and could remain viable even without replenishing the medium, so that they would be quiescent (Q). After several trials, the inventors settled on ALL cells. Nuclear and cytoplamic fractions were separated by low speed centrifugation after cell lysis with mild detergent. The nuclear fractions were treated with 0.5 M KCl and the chromatin spun out at 100,000 g for one hour. The cytoplasmic fraction was also spun at 100,000 g for one hour, glycerol was added to 20% and fractions frozen at −80 C. […] The fractions were loaded onto 1 ml columns of monomeric avidin beads that had been pretreated with biotin to block accessible sites and washed with pH 2.8 glycine buffer and the incubation buffer (see FIG. 10). Proteins were eluted from both columns with buffer containing 2 mM biotin, 10% TCA precipitated and analyzed on polyacrylamide gels. Bands A and B from the 1 mm gel shown in FIG. 11 were excised out and submitted to the proteomics group for analysis.

[10] = molecular target: T3, Programmed cell death (AIF) (Homo sapiens, UniProt O95831); test: as above; format: binding
T3 construct: Two peptides were detected for AIF in band B of the BMS-844472 eluates that were absent from the control eluates; endogenous in cells; host or cells: ALL cells (quiescent), nuclear and cytoplasmic fractions
T3 sequence (O95831 102-613): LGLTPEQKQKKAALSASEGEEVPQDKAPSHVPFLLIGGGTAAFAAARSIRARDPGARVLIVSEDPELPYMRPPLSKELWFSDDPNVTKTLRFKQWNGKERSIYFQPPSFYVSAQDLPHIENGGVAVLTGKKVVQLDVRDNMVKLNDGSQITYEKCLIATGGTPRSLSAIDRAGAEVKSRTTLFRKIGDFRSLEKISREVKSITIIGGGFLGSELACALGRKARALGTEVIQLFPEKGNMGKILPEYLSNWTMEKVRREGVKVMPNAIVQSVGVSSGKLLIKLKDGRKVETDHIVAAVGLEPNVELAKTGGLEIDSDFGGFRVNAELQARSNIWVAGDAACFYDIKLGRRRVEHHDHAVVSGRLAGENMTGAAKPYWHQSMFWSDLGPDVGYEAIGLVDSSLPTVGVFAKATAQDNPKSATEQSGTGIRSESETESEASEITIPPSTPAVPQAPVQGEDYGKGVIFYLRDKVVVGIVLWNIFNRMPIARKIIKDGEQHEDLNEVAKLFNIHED
Description: as §2

[11] = molecular target: T4, Protein phosphatase 1G (Homo sapiens, UniProt O15355); test: as above; format: binding
T4 construct: endogenous in cells; host or cells: ALL cells (quiescent), nuclear and cytoplasmic fractions
T4 sequence (O15355 1-546): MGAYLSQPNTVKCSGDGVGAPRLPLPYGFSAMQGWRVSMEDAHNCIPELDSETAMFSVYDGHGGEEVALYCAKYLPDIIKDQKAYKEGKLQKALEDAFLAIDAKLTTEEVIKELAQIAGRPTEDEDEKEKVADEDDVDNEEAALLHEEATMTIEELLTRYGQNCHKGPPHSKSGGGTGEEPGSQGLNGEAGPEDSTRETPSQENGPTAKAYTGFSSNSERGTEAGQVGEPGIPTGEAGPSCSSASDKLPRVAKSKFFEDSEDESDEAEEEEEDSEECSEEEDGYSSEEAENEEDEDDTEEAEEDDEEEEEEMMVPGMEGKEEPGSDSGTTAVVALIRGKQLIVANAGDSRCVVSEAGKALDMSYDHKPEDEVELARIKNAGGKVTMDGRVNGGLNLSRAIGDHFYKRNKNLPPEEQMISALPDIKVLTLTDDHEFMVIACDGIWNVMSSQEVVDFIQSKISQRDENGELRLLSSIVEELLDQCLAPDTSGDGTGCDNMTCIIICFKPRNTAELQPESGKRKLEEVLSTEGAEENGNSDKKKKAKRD
Description: as §2

Compound: Cn1cncc1CN1C[C@@H](Cc2ccccc2)N(S(=O)(=O)c2cccs2)Cc2cc(C#N)ccc21 [BMS-225975]
- Activity in vivo, LCK (log cell kill) when no cures were achieved [1]: 0.3 LCK
- Activity in vivo, cures [1]: 0/8
- IC50 [2]: 12 nM
- competition for the cross-linker site [3]: able to compete
- proapoptotic activity [4]: does not induce apoptosis
- P/Q activity ratio [5]: 0.7
- P/Q selectivity [5]: 11-100 1.4
- IC50 [6]: 900 nM

- IC90 [5]: 1.3 nM
Compound: C/C(=C\c1csc(C)n1)[C@@H]1C[C@@H]2O[C@]2(C)CCC[C@H](C)[C@H](O)[C@@H](C)C(=O)C(C)(C)[C@@H](O)CC(=O)N1 [ixabepilone]
- tumor cures ([7]; cured mice of group): did not produce any tumor cures
- tumor growth delay ([7]; mouse, in vivo): 1.1 LCK
- relative sensitivity of P versus Q cells ([5]; P cells more sensitive): > 83 fold

Compound: NC(=O)N1CCC(CC(=O)N2CCC([C@H]3c4ncc(Br)cc4CCc4cc(Cl)cc(Br)c43)CC2)CC1 [SCH66336]
- P/Q activity ratio [5]: 0.74

Compound: O=c1[nH]cc(F)c(=O)[nH]1 [5-fluorouracil]
- preferential cytotoxicity P versus Q [5]: preferentially cytotoxic to P tumor cells

Compound: N#Cc1ccc2c(c1)CN(S(=O)(=O)c1ccccc1)[C@H](Cc1ccccc1)CN2Cc1cnc[nH]1 [BMS-212347]
- Activity in vivo, cures [1]: 7/8
- IC50 [2]: 41 nM
- IC50 [8]: 2.4 nM
- P/Q selectivity [5]: 47
- IC50 [6]: 1200 nM

- Peptide Hits Exp 1 [9]: 15
- Peptide Hits Exp 2 [9]: 18
- Peptide Hits Exp 1 [11]: 4
- Peptide Hits Exp 2 [11]: 1
Compound: N#Cc1ccc2c(c1)CN(S(=O)(=O)CCCNC(=O)CCCCCNC(=O)CCCC[C@H]1SC[C@H]3NC(=O)N[C@H]31)CCN2Cc1cnc[nH]1 [BMS-236724]
- Peptide Hits Exp 1 [10]: 3
- Peptide Hits Exp 2 [10]: 5

Compound: Cn1cncc1CN1C[C@@H](Cc2ccccc2)N(S(=O)(=O)c2ccccc2)Cc2cc(C#N)ccc21 [BMS-223999]
- Activity in vivo, LCK (log cell kill) when no cures were achieved [1]: 0.4 LCK
- Activity in vivo, cures [1]: 0/8
- IC50 [2]: 8 nM
- IC50 [8]: 1.1 nM
- IC50 [6]: 530 nM

- IC90 [5]: 17.8 nM
- Q cell values (IC90) ([5]; Q cells): not reached
Compound: CC(=O)O[C@H]1C(=O)[C@@]2(C)[C@H]([C@H](OC(=O)c3ccccc3)[C@]3(O)C[C@H](OC(=O)[C@H](O)[C@@H](NC(=O)c4ccccc4)c4ccccc4)C(C)=C1C3(C)C)[C@]1(OC(C)=O)CO[C@@H]1C[C@@H]2O [paclitaxel]

Compound: Cn1cncc1[C@@](N)(c1ccc(Cl)cc1)c1ccc2c(c1)c(-c1cccc(Cl)c1)cc(=O)n2C [R-115777]
- P/Q activity ratio [5]: 0.83
